The text below walks through data of patent publication US8536175B2, “Quinoxaline carboxamide derivatives as protein tyrosine kinase inhibitors” (Novartis AG, priority 2008, dated 2013).

Structures are written as SMILES.

For the first assay, the target named is FGFR3 kinase (Homo sapiens (Human), UniProt P22607, K650E). In words: FGFR3 kinase inhibition (protein kinase activity assays). It is filed as biochemical. The following applies: average of 2 independent measurements; * single value; read-out: FGFR3 IC50. As for the experimental part: generic assay set-up: Enzyme activities were measured by mixing 10 μL of a 3-fold concentrated compound solution or control with 10 μL of the corresponding substrate mixture (peptidic substrate, ATP and [γ^33P]ATP). The reactions were initiated by addition of 10 μL of a 3-fold concentrated solution of the respective enzyme in assay buffer. […] Filter binding (FB) method: FB assays were carried out in 96-well plates at room temperature for 10 min in a finial volume of 30 μL including the components as indicated in section above. […] After spotting, vacuum was connected and each well rinsed with 200 μL 0.5% H3PO4. Free membranes were removed and washed 4 times on a shaker with 1% H3PO4 and once with ethanol. Membranes were dried and overlaid with addition of 10 μL/well of a scintillation fluid. The plates were eventually sealed and counted in a microplate scintillation counter. IC50 values were calculated by linear regression analysis of the percentage inhibition of the compound.
Sequence of FGFR3 kinase (P22607 23-806 K650E): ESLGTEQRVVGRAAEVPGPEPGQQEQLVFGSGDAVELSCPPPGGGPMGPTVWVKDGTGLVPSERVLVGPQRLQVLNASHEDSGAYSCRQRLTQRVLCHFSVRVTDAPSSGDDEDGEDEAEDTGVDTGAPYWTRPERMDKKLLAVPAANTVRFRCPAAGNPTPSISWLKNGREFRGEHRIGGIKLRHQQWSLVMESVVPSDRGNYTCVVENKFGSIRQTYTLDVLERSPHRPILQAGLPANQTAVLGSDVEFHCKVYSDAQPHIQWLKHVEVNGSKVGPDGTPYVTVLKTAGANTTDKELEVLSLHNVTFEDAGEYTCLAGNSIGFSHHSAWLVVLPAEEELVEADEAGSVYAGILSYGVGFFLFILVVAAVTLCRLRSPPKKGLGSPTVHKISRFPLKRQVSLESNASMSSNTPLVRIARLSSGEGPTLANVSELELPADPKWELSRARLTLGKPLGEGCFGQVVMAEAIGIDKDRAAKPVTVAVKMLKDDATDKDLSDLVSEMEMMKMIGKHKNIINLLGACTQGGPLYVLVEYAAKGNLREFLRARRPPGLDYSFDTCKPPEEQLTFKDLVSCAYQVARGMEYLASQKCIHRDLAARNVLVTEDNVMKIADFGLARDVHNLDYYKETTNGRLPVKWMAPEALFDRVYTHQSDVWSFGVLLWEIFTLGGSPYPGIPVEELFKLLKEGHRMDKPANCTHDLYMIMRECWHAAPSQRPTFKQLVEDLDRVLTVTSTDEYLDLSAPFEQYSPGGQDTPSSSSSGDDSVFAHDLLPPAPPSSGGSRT
generic assay set-up: The assay has been run at room temperature on a liquid handling robot. […] After an incubation time of 45 min in the dark, the plates were transferred into a fluorescence reader for counting.
Compounds of formula (I) are assayed to measure their capacity to inhibit FGFR3 kinase as described above.
As to `CCN1CCN(Cc2ccc(NC(=O)c3ccc(-c4cc(C)c[n+]([O-])c4C)c4nccnc34)nc2)CC1` [Example 99, 8-(2,5-Dimethyl-1-oxy-pyridin-3-yl)-quinoxaline-5-carboxylic acid [5-(4-ethyl-piperazin-1-ylmethyl)-pyridin-2-yl]-amide], the IC50 was greater than 10 µM.

As to `COc1cc(OC)c(Cl)c(-c2ccc(C(=O)Nc3ccc(C(N)=O)cc3)c3nccnc23)c1Cl` [Example 3, 8-(2,6-Dichloro-3,5-dimethoxy-phenyl)-quinoxaline-5-carboxylic acid (4-carbamoyl-phenyl)-amide], the IC50 was greater than 10 µM.

Consider `Cc1cccc(C)c1-c1ccc(C(=O)Nc2nc(CN3CCN(C)CC3)c[nH]2)c2nccnc12` [Example 77, 8-(2,6-Dimethyl-phenyl)-quinoxaline-5-carboxylic acid [4-(4-methyl-piperazin-1-ylmethyl)-1H-imidazol-2-yl]-amide], for which the IC50 was greater than 10 µM.

As to `Cc1cscc1-c1ccc(C(=O)Nc2nc(CN3CCN(C)CC3)c[nH]2)c2nccnc12` [Example 69, 8-(4-Methyl-thiophen-3-yl)-quinoxaline-5-carboxylic acid [4-(4-methyl-piperazin-1-ylmethyl)-1H-imidazol-2-yl]amide], the IC50 was greater than 10 µM.

Regarding `COc1cc(OC)c(Cl)c(-c2ccc(C(=O)Nc3nnc[nH]3)c3nccnc23)c1Cl` [Example 17, 8-(2,6-Dichloro-3,5-dimethoxy-phenyl)-quinoxaline-5-carboxylic acid (4H-[1,2,4]triazol-3-yl)-amide], the IC50 was greater than 10 µM.

The assay is the same for the next values; noted with them: read-out: rating (FGFR3 kinase IC50).
Turning to `COc1cc(OC)c(Cl)c(-c2ccc(C(=O)Nc3ccc(CN(C)CCN(C)C)cn3)c3nccnc23)c1Cl` [Example 81, 8-(2,6-Dichloro-3,5-dimethoxy-phenyl)-quinoxaline-5-carboxylic acid (5-{[(2-dimethylamino-ethyl)-methyl-amino]-methyl}-pyridin-2-yl)-amide], the IC50 was less than 0.1 µM.

For the molecule `COc1cc(OC)c(Cl)c(-c2ccc(C(=O)Nc3nccn3Cc3ccccc3)c3ncccc23)c1Cl` [Example 160, 5-(2,6-Dichloro-3,5-dimethoxy-phenyl)-quinoline-8-carboxylic acid (1-benzyl-1H-imidazol-2-yl)-amide], the IC50 fell in the range of 0.5 to 50 µM.

Take `COc1cc(OC)c(Cl)c(-c2ccc(C(=O)Nc3ccc(N4CCN(C(C)C)CC4)nc3)c3nccnc23)c1Cl` [Example 33, 8-(2,6-Dichloro-3,5-dimethoxy-phenyl)-quinoxaline-5-carboxylic acid [6-(4-isopropyl-piperazin-1-yl)-pyridin-3-yl]-amide]: the IC50 is less than 0.1 µM.

`COc1cc(OC)c(Cl)c(-c2ccc(C(=O)Nc3ccn(CCN(C)C)c3)c3nccnc23)c1Cl` [Example 121, 8-(2,6-Dichloro-3,5-dimethoxy-phenyl)-quinoxaline-5-carboxylic acid [1-(2-dimethylamino-ethyl)-1H-pyrrol-3-yl]-amide]: the IC50 fell in the range of 0.5 to 50 µM.

On to `COc1cc(OC)c(Cl)c(-c2ccc(C(=O)Nc3ccc(CN4CCN(C)CC4)cn3)c3ncccc23)c1Cl` [Example 164, 5-(2,6-Dichloro-3,5-dimethoxy-phenyl)-quinoline-8-carboxylic acid [5-(4-methyl-piperazin-1-ylmethyl)-pyridin-2-yl]amide], for which the IC50 was less than 0.1 µM.

Consider `COc1cc(OC)c(Cl)c(-c2ccc(C(=O)Nc3ccc(N(C)C4CCN(C)CC4)nc3)c3nccnc23)c1Cl` [Example 37, 8-(2,6-Dichloro-3,5-dimethoxy-phenyl)-quinoxaline-5-carboxylic acid {6-[methyl-(1-methyl-piperidin-4-yl)-amino]-pyridin-3-yl}-amide], for which the IC50 was less than 0.1 µM.

As to `CCN1CCN(Cc2ccc(NC(=O)c3ccc(-c4c(Cl)c(OC)cc(OC)c4Cl)c4cccnc34)nc2)CC1` [Example 165, 5-(2,6-Dichloro-3,5-dimethoxy-phenyl)-quinoline-8-carboxylic acid [5-(4-ethyl-piperazin-1-ylmethyl)-pyridin-2-yl]-amide], the IC50 lay in the range of 0.1 to 0.5 µM.

In the case of `COc1cc(OC)c(F)c(-c2ccc(C(=O)Nc3ccc(CN4CCN(C)CC4)nc3)c3nccnc23)c1F` [Example 89, 8-(2,6-Difluoro-3,5-dimethoxy-phenyl)-quinoxaline-5-carboxylic acid [6-(4-methyl-piperazin-1-ylmethyl)-pyridin-3-yl]-amide], the IC50 was less than 0.1 µM.

On to `COc1cc(OC)c(Cl)c(-c2ccc(C(=O)Nc3ncc[nH]3)c3ncccc23)c1Cl` [Example 161, 5-(2,6-Dichloro-3,5-dimethoxy-phenyl)-quinoline-8-carboxylic acid (1H-imidazol-2-yl)-amide], for which the IC50 was less than 0.1 µM.

With `COc1cc(OC)c(Cl)c(-c2ccc(C(=O)Nc3cnc[nH]3)c3ncccc23)c1Cl` [Example 162, 5-(2,6-Dichloro-3,5-dimethoxy-phenyl)-quinoline-8-carboxylic acid (3H-imidazol-4-yl)-amide], the IC50 is 0.1 to 0.5 µM.

As to `COc1cc(OC)c(Cl)c(-c2ccc(C(=O)Nc3ccc(CN4CCNCC4)nc3)c3ncccc23)c1Cl` [Example 171, 5-(2,6-Dichloro-3,5-dimethoxy-phenyl)-quinoline-8-carboxylic acid (6-piperazin-1-ylmethyl-pyridin-3-yl)-amide], the IC50 is 0.5 to 50 µM.

Consider `COc1cc(OC)c(Cl)c(-c2ccc(C(=O)Nc3ccc(OCCN(C)C)cc3)c3nccnc23)c1Cl` [Example 5, 8-(2,6-Dichloro-3,5-dimethoxy-phenyl)-quinoxaline-5-carboxylic acid [4-(2-dimethylamino-ethoxy)-phenyl]-amide], for which the IC50 was less than 0.1 µM.

As for `CCN1CCN(c2ccc(NC(=O)c3ccc(-c4c(Cl)c(OC)cc(OC)c4Cl)c4nccnc34)cc2)CC1` [Example 1, 8-(2,6-Dichloro-3,5-dimethoxy-phenyl)-quinoxaline-5-carboxylic acid [4-(4-ethyl-piperazin-1-yl)-phenyl]-amide], the IC50 was less than 0.1 µM.

With `COc1cc(OC)c(F)c(-c2ccc(C(=O)Nc3nc(CN4CCN(C)CC4)c[nH]3)c3nccnc23)c1F` [Example 141, 8-(2,6-Difluoro-3,5-dimethoxy-phenyl)-quinoxaline-5-carboxylic acid [4-(4-methyl-piperazin-1-ylmethyl)-1H-imidazol-2-yl]-amide], the IC50 was less than 0.1 µM.

On to `COc1cc(OC)c(F)c(-c2ccc(C(=O)Nc3ccc(CN4CCS(=O)(=O)CC4)cn3)c3nccnc23)c1F` [Example 140, 8-(2,6-Difluoro-3,5-dimethoxy-phenyl)-quinoxaline-5-carboxylic acid [5-(1,1-dioxo-thiomorpholin-4-ylmethyl)-pyridin-2-yl]-amide], for which the IC50 is less than 0.1 µM.

`CCN1CCN(c2ccc(NC(=O)c3ccc(-c4c(C)cccc4C)c4nccnc34)cc2)CC1` [Example 72, 8-(2,6-Dimethyl-phenyl)-quinoxaline-5-carboxylic acid [4-(4-ethyl-piperazin-1-yl)-phenyl]-amide]: the IC50 lay within 0.5 to 50 µM.

As to `COc1cc(OC)c(Cl)c(-c2ccc(C(=O)Nc3cccnc3)c3ncc(N(C)CCN(C)C)nc23)c1Cl` [Example 87, 8-(2,6-Dichloro-3,5-dimethoxy-phenyl)-2-[(2-dimethylamino-ethyl)-methylamino]-quinoxaline-5-carboxylic acid pyridin-3-ylamide], the IC50 was in the range of 0.5 to 50 µM.

Regarding `COc1cc(OC)c(Cl)c(-c2ccc(C(=O)Nc3ccc(CN4CCS(=O)(=O)CC4)cn3)c3nccnc23)c1Cl` [Example 104, 8-(2,6-Dichloro-3,5-dimethoxy-phenyl)-quinoxaline-5-carboxylic acid [5-(1,1-dioxothiomorpholin-4-ylmethyl)-pyridin-2-yl]-amide], the half-maximal inhibitory concentration (IC50) fell in the range of 0.1 to 0.5 µM.

Turning to `CCN1CCN(Cc2ccc(NC(=O)c3ccc(-c4c(F)c(OC)cc(OC)c4F)c4nccnc34)cn2)CC1` [Example 88, 8-(2,6-Difluoro-3,5-dimethoxy-phenyl)-quinoxaline-5-carboxylic acid [6-(4-ethyl-piperazin-1-ylmethyl)-pyridin-3-yl]-amide], the IC50 is less than 0.1 µM.

With `CCN1CCN(Cc2ccc(NC(=O)c3ccc(-c4cc(OC)cc(OC)c4)c4nccnc34)nc2)CC1` [Example 115, 8-(3,5-Dimethoxy-phenyl)-quinoxaline-5-carboxylic acid [5-(4-ethyl-piperazin-1-ylmethyl)-pyridin-2-yl]-amide], the IC50 was 0.5 to 50 µM.

As for `COc1cc(OC)c(Cl)c(-c2ccc(C(=O)Nc3ccc(CN4CCN(C)CC4)nc3)c3ncccc23)c1Cl` [Example 168, 5-(2,6-Dichloro-3,5-dimethoxy-phenyl)-quinoline-8-carboxylic acid [6-(4-methyl-piperazin-1-ylmethyl)-pyridin-3-yl]amide], the IC50 lay within 0.1 to 0.5 µM.

For `COc1cc(OC)c(F)c(-c2ccc(C(=O)Nc3cccnc3)c3nccnc23)c1F` [Example 90, 8-(2,6-Difluoro-3,5-dimethoxy-phenyl)-quinoxaline-5-carboxylic acid pyridin-3-ylamide], the half-maximal inhibitory concentration (IC50) lay in the range of 0.1 to 0.5 µM.

As for `COc1cc(OC)c(Cl)c(-c2ccc(C(=O)Nc3ccc(O)cc3)c3nccnc23)c1Cl` [Example 7, 8-(2,6-Dichloro-3,5-dimethoxy-phenyl)-quinoxaline-5-carboxylic acid (4-hydroxyphenyl)-amide], the IC50 was 0.5 to 50 µM.

On to `COc1ccc(Cl)c(-c2ccc(C(=O)Nc3ccc(OCCN(C)C)cc3)c3nccnc23)c1` [Example 65, 8-(2-Chloro-5-methoxy-phenyl)-quinoxaline-5-carboxylic acid [4-(2-dimethylamino-ethoxy)-phenyl]-amide], for which the concentration for half-maximal inhibition (IC50) fell in the range of 0.5 to 50 µM.

As usually defined, the IC50 is the point on the concentration scale where inhibition reaches its midpoint.
